Laboratory results taken from patent US12465605B2, “Methods and materials for gender-dependent treatment of cardiovascular dysfunction” (Mayo Foundation for Medical Education and Research, priority 2019, dated 2025).

Columns and labels:
Assay type in all cases: cell-based
[1] = test system: Osterix (BMP target gene); assay: Osterix mRNA in aortic valve interstitial cells treated with sGC agonists; details: for Osterix expression: 24 hours
Procedure: (§1) In vitro cell culture studies: Aortic valve interstitial cells were isolated using an outgrowth method, and were expanded in DMEM/F-10 medium with 10% FBS and studied in passages 2-10. Cells were treated for 24 hours under each experimental condition, at which point mRNA was harvested using lysis buffer. After mRNA isolation and reverse transcription, gene expression was measured using quantitative real-time RT-PCR and Taqman primers. Changes in gene expression were assessed by the ddCt method and expressed as fold-change normalized to control conditions.
In vitro studies were conducted in aortic valve interstitial cells to determine the effects of several sGC agonists on mRNA levels of Osterix, a BMP target gene. Cells were treated with nelociguat, vericiguat, lificiguat, or BAY41-8543, and Osterix mRNA levels were determined. Nelociguat and BAY41-8543 were used at concentrations ranging from 1 nM to 10 μM, while vericiguat and lificiguat were used at concentrations ranging from 1 nM to 1 μM.

sGC = molecular target: T1, sGC (Mus musculus, UniProt O54865); assay: sGC signaling (phospho-VASP239) in mouse aortic valve interstitial cells; details: otherwise naïve mVICs, vs vehicle-treated cells
T1 construct: endogenous in cells; host or cells: primary mouse aortic valve interstitial cells (mVICs) from C57BL6/J mice
T1 sequence (O54865 1-620): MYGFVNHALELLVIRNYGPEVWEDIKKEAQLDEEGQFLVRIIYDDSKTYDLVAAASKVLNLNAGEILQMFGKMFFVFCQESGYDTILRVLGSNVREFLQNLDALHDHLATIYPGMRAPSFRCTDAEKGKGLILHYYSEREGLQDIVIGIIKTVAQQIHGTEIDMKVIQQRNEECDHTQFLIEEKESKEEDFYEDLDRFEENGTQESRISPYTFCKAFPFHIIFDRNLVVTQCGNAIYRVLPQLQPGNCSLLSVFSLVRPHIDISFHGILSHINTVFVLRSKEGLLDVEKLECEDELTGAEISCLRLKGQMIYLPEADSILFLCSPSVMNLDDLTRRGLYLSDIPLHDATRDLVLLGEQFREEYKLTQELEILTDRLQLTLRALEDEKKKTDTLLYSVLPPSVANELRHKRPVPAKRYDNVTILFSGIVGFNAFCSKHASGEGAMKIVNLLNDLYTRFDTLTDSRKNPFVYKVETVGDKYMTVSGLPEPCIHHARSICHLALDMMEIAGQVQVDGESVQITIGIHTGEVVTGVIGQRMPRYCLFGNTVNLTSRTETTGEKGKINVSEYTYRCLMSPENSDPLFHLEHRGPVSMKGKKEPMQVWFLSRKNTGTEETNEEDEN
T1 sequence (Q9ERL9 1-691 partner): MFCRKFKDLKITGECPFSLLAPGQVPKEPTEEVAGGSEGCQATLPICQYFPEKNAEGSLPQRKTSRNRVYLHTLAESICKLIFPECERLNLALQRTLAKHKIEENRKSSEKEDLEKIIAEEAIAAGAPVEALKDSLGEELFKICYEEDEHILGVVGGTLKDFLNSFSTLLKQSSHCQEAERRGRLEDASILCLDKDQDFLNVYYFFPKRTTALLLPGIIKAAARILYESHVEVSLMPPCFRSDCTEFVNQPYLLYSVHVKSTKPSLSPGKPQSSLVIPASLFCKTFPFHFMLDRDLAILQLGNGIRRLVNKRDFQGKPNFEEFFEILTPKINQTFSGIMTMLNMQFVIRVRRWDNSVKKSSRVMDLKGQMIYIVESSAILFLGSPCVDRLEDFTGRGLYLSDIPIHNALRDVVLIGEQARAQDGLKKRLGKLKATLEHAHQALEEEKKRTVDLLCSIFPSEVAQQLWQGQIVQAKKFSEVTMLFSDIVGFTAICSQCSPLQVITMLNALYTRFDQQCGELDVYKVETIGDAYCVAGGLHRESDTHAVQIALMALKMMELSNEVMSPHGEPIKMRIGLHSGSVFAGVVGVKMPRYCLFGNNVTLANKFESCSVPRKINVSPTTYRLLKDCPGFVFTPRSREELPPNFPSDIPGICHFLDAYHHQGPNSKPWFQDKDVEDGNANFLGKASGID
Procedure: To confirm that ataciguat effectively activated sGC in cells, mouse aortic valve interstitial cells (mVICs) were isolated from C57BL6/J mice treated with ataciguat or other sGC agonists as internal controls. […] To determine whether ataciguat could attenuate signaling cascades central to the initiation and progression of valve calcification in vitro, cells were treated with BMP2 with or without ataciguat. In these studies, ataciguat reduced phospho-SMAD1/5/8 signaling (e.g., canonical BMP signaling) as well as expression of osteogenic genes induced by BMP2 (e.g., osterix).

[2] = test system: LPA-induced BMP signaling; assay: LPA-induced BMP signaling (Osterix mRNA) in aortic valve interstitial cells; details: treatment with 18:0 lyso-PA alone
Procedure: as §1
Additional studies were conducted in aortic valve interstitial cells to examine the effects of ataciguat on LPA-induced BMP signaling and BMP target gene expression. Cells were treated with 18:0 lyso-PA, with or without ataciguat, and Osterix mRNA levels were determined.

For `Nc1nc(-c2nn(Cc3ccccc3F)c3ncccc23)nc(N)c1N1CCOCC1` [BAY41-8543, 2-[1-[(2-fluorophenyl)methyl]-1H-pyrazolo[3,4-b]pyridin-3-yl]-5-(4-morpholinyl)-4,6-pyrimidinediamine], the Osterix expression ([1]; at 10 μM) was “highly efficacious” and the Osterix expression ([1]; tested 1 nM to 10 μM) was “dose-dependent reductions”.

In the case of `CCN(CC)/[N+]([O-])=N/O.CCNCC` [DEA-NONOATE], the “sGC-dependent signaling (phospho-VASP^239 levels)” value (sGC) was “increased phospho-VASP^239 levels to a similar extent”.

In the case of `OCc1ccc(-c2nn(Cc3ccccc3)c3ccccc23)o1` [lificiguat], the Osterix expression ([1]; tested 1 nM to 1 μM) was “lose efficacy at higher concentrations”.

`COC(=O)Nc1c(N)nc(-c2nn(Cc3ccccc3F)c3ncccc23)nc1N` [nelociguat, methyl (4,6-diamino-2-(1-(2-fluorobenzyl)-1H-pyrazolo[3,4-b]pyridin-3-yl)pyrimidin-5-yl)carbamate] was tested, and the “concentration that may be cytotoxic” value ([1]; suggested from loss of effect at the highest concentration) was at least 10 µM.

For `COC(=O)Nc1c(N)nc(-c2nn(Cc3ccccc3F)c3ncc(F)cc23)nc1N` [vericiguat, methyl (4,6-diamino-2-(5-fluoro-1-(2-fluorobenzyl)-1H-pyrazolo[3,4-b]pyridin-3-yl)pyrimidin-5-yl)carbamate], the Osterix expression ([1]; tested 1 nM to 1 μM) was “only at the highest dose tested”.

With lysophosphatidic acid [18:0 lyso-PA] the “expression of Osterix” value [2] was “increased expression”.
